Test results from article PMC8958325 (iScience, 2022).

Columns and labels:
Mms2–Ubc13 = Mms2–Ubc13 (Homo sapiens, UniProt P61088+Q15819); experiment: Mms2–Ubc13∼ubiquitin thioester formation gel-based assay; format: biochemical; conditions: at 100 μM, silver-stained gel
HeLa cells = experiment: Cell survival; format: cell-based; conditions: Homo sapiens, 24 h, read-out: IC50 (μM) for cell survival
Uba1 = target: T1, Uba1 (Homo sapiens, UniProt P22314); experiment: Uba1∼ubiquitin thioester formation Alpha assay; format: biochemical; conditions: for inhibition of Uba1∼ubiquitin thioester formation: Alpha assay
T1 sequence (P22314 1-1058): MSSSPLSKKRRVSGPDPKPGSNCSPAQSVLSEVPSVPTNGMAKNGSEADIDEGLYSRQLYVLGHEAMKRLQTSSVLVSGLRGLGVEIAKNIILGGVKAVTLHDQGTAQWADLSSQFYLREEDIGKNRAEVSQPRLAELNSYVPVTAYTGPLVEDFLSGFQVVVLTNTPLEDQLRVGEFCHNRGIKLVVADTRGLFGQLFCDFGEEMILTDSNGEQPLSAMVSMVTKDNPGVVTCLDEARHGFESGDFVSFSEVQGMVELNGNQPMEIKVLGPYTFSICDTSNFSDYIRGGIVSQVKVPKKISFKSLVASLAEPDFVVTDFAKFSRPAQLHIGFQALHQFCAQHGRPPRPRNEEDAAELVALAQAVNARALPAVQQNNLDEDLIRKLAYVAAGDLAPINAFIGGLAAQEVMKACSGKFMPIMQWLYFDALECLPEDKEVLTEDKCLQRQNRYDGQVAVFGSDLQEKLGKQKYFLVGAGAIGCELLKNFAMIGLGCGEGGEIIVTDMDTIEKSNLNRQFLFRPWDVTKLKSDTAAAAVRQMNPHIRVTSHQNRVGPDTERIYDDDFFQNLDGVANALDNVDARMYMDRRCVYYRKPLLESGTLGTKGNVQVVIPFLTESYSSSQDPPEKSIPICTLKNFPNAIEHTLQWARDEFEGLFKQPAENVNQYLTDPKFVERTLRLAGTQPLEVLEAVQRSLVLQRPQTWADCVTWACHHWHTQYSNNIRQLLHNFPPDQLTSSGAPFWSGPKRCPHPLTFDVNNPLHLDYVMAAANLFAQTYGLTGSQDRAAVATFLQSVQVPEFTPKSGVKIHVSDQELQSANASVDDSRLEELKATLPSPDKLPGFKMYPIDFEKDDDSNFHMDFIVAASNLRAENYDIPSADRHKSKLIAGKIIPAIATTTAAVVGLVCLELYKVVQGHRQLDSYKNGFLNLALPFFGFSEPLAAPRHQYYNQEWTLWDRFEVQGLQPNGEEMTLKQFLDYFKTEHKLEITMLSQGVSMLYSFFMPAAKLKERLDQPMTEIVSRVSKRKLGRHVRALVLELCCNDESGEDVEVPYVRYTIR

PCNA ubiquitination = experiment: Alpha assay for overall PCNA ubiquitination; format: biochemical, human; conditions: for IC50: read-out: IC50 PCNA–Ub, SE and 95% CI in cell
Rad6–Rad18 interaction = Rad6–Rad18 interaction (Homo sapiens, UniProt P63146); experiment: Rad6–Rad18 interaction Alpha assay; format: binding; conditions: for disruption of the Rad6–Rad18 interaction: Alpha assay
Rad6 [1] = target: T2, Rad6 (Homo sapiens, UniProt P63146); experiment: biochemical; format: biochemical; conditions: for inhibition of formation of the Rad6∼ubiquitin thioester conjugate: Alpha assay
Rad6 [2] = target: T2, Rad6; experiment: Microscale thermophoresis, binding to GFP-Rad6
Rad18 [3] = target: Rad18 (Homo sapiens, UniProt Q9NS91); experiment: Microscale thermophoresis, binding to GFP-Rad18; conditions: low concentrations used for the Rad6-binding study
Rad6–Ubr1 interaction = Rad6–Ubr1 interaction (Homo sapiens, UniProt P63146); experiment: Rad6–Ubr1 interaction Alpha assay; format: binding
Rad18 [4] = target: Rad18 (Homo sapiens, UniProt P63146); experiment: biochemical; format: biochemical; conditions: for inhibition of Rad18 autoubiquitination: Alpha assay
Chain of Rad18 (Homo sapiens, UniProt P63146) (P63146 whole entry): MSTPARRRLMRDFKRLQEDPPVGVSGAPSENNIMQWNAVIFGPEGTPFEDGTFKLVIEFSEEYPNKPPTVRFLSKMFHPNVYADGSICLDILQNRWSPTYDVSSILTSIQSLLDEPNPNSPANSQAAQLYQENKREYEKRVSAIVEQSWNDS

Chain of Rad6–Rad18 interaction (P63146 whole entry): as above
T2 sequence (P63146 whole entry): as above
Chain of Mms2–Ubc13 (P61088 whole entry): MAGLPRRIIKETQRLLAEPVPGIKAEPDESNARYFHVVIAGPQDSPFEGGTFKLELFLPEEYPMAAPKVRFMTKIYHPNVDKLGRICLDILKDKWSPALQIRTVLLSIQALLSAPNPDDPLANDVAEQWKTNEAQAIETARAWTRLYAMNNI
Chain of Mms2–Ubc13 (Q15819 whole entry): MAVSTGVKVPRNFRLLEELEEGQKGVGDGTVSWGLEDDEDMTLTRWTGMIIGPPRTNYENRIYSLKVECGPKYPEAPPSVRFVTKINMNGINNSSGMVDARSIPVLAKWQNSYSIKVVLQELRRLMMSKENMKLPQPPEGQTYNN
Chain of Rad6–Ubr1 interaction (P63146 whole entry): as the sequence (P63146 whole entry) above
Chain of Rad18 (Homo sapiens, UniProt Q9NS91) (Q9NS91 whole entry): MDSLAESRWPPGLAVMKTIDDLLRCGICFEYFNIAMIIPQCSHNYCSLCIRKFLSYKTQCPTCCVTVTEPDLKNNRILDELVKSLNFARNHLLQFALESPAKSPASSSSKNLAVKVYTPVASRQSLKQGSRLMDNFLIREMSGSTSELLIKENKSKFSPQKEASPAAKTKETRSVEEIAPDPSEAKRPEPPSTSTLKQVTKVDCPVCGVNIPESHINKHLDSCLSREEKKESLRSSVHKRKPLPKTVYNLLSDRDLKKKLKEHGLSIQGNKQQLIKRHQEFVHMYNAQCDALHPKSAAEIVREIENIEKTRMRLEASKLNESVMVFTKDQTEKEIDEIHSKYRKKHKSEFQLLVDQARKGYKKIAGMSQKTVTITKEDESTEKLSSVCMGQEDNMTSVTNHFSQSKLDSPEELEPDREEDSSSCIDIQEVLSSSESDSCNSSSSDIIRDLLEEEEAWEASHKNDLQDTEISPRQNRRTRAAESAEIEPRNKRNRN

Structure (SMILES)	Mms2–Ubc13∼Ub inhibition on gel (Mms2–Ubc13)	IC50 (HeLa cells) [µM]	IC50 (Uba1) [µM]	effect on PCNA ubiquitination (PCNA ubiquitination; Figure 3G)	IC50 (PCNA ubiquitination) [µM]	inhibition of Uba1∼ubiquitin thioester formation (Uba1)	IC50 (Rad6–Rad18 interaction) [µM]	disruption of the Rad6–Rad18 interaction (Rad6–Rad18 interaction)	IC50 (Rad6 [1]) [µM]	inhibition of formation of the Rad6∼ubiquitin thioester conjugate (Rad6 [1])	Kd (Rad6 [2]) [µM]	binding to Rad18 (Rad18 [3])	IC50 (Rad6–Ubr1 interaction) [µM]	IC50 (Rad18 [4]) [µM]	inhibition of Rad18 autoubiquitination (Rad18 [4])	Rad6–Ubr1 inhibition by Alpha (Rad6–Ubr1 interaction; at 50 μM)
COc1ccc(C2c3cc(O)c(OC)cc3Oc3cc(OC)c(O)cc32)cc1 [NSC 348718, 3,6-dimethoxy-9-(4-methoxyphenyl)-9H-xanthene-2,7-diol]	No inhibition on gel at 100 μM	27.7	> 100	inactive	> 100	–	–	–	–	–	–	–	–	–	–	–
Cc1cc2c(-c3ccccc3)c3cc(C)c(N)cc3nc2cc1N [NSC 71947, 2,7-dimethyl-9-phenylacridine-3,6-diamine]	No inhibition on gel at 100 μM	11.8	> 100	–	24.9	–	–	–	–	–	–	–	–	–	–	–
O=C(O)c1cccc(-c2c3ccc(=O)cc-3oc3cc(O)ccc23)c1 [NSC 119888, 3-(3-hydroxy-6-oxoxanthen-9-yl)benzoic acid]	No inhibition on gel at 100 μM	75.3	53.8	–	–	inhibit	–	–	–	–	–	–	–	–	–	–
O=C(O)C1CC=CCC1c1c2ccc(=O)cc-2oc2cc(O)ccc12 (stereo not drawn) [NSC 157411, 6-(3-Hydroxy-6-oxo-xanthen-9-yl)cyclohex-3-ene-1-carboxylic acid]	No inhibition on gel at 100 μM	428	24.8	–	8.44	inhibit	–	–	–	–	–	–	–	–	–	–
O=c1cc2oc3cc(O)c(O)cc3c(-c3ccccc3O)c-2cc1O [NSC 9037, 2,6,7-trihydroxy-9-(2-hydroxyphenyl)-3H-xanthen-3-one]	No inhibition on gel at 100 μM	62.2	> 100	–	4.54	–	6.19	disrupt	8.9	inhibit	3.79 ± 2.94	very weak binding	> 50	4.46	inhibit	–
CN(C)c1ccc(-c2c3cc(O)c(=O)cc-3oc3cc(O)c(O)cc23)cc1 [NSC 80693, 9-[4-(dimethylamino)phenyl]-2,6,7-trihydroxy-3H-xanthen-3-one]	No inhibition on gel at 100 μM	7.67	> 100	–	4.28	–	14.6	disrupt	91.8	inhibit	–	–	–	13.2	inhibit	Little inhibition by Alpha at 50 μM
O=C(O)c1ccc(-c2c3ccc(=O)cc-3oc3cc(O)ccc23)cc1 [NSC 119891, 4-(3-hydroxy-6-oxoxanthen-9-yl)benzoic acid]	No inhibition on gel at 100 μM	208	> 100	–	–	–	–	–	–	–	–	–	–	–	–	–
